According to patent publication EP4610269A1, “UROKINASE PLASMINOGEN ACTIVATOR SURFACE RECEPTOR (UPAR) LIGANDS FOR DIAGNOSTIC OR THERAPEUTIC USE” (3B Pharmaceuticals GmbH, priority 2024, dated 2025):
Where two headings read alike, the source gives them in different places. Where a SMILES comes first, the peptide text is derived from it. Bridges are numbered along the chain shown (N, C = ends). Side-chain parts run from the residue outwards. [ ]: non-standard residue; d: D form. The star is where a group is joined. GdDOTA = Gd(III) DOTA conjugate, O=C([O-])CN1CCN(CC(=O)[O-])CCN(CC(=O)*)CCN(CC(=O)[O-])CC1.[Gd+3]; DOTA(Lu) = O=C1CN2CCN3CCN(CC(=O)*)CCN(CC2)CC(=O)[O][Lu]([O]1)[O]C(=O)C3; DOTA = O=C(O)CN1CCN(CC(=O)O)CCN(CC(=O)*)CCN(CC(=O)O)CC1; PEG12 = NCCOCCOCCOCCOCCOCCOCCOCCOCCOCCOCCOCCOCCC(=O)O; Hyp = O=C(O)[C@@H]1C[C@@H](O)CN1; hArg = N=C(N)NCCCC[C@H](N)C(=O)O; Pentanoyl(4-Me) = CC(C)CCC(=O)*; Cit = NC(=O)NCCC[C@H](N)C(=O)O; Butoxycarbonyl = CCCCOC(=O)*; Api = NC1(C(=O)O)CCNCC1; Nva = CCC[C@H](N)C(=O)O; Hexanoyl = CCCCCC(=O)*; Pentanoyl = CCCCC(=O)*; AEEA = NCCOCCOCC(=O)O

Key:
[1] = target: T1, uPAR-expressing HEC-265 human endometrial adenocarcinoma cells (Homo sapiens, UniProt Q03405); test: Competitive FACS binding assay; details: pIC50 category of FACS binding
T1 construct: Cell surface uPAR-expressing HEC-265 human endometrial adenocarcinoma cells; host or cells: HEC-265
T1 sequence (Q03405 23-335): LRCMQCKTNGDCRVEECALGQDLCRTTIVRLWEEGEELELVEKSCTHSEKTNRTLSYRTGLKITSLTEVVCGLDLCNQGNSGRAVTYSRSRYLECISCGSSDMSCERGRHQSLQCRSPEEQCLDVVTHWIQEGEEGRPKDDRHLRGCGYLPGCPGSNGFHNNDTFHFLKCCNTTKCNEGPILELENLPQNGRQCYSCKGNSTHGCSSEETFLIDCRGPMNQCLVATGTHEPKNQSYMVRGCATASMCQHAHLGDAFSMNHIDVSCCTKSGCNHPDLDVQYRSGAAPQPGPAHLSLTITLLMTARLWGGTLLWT
Procedure, shortened: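 HEC-265 cells incubated 1 h at 4 °C with 10 nM biotinylated uPAR peptide tracer plus increasing test compound, then stained with APC-streptavidin on ice. Median APC fluorescence by flow cytometry; 4PL fit gives pIC50.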

[2] = Plasma stability assay (mouse plasma); format: in vitro ADME; details: 37°C, LC-MS quantification; for % intact compound remaining after 6h incubation Mouse plasma: mouse plasma (sodium citrate); for remaining at 6 h, 9.8 µM: mouse plasma (sodium citrate 3.7%), read-out: % intact compound remaining after 6h incubation Mouse plasma
Method: In order to determine the stability of selected compounds of the invention in human and mouse plasma, a plasma stability assay was carried out. Such plasma stability assay measures degradation of compounds of the present invention in blood plasma. This is an important characteristic of a compound as compounds, with the exception of pro-drugs, which rapidly degrade in plasma, generally show poor in vivo efficacy. […] The stability is sufficient for the diagnostic, therapeutic and theragnostic use of these compounds according to the present invention.
The plasma stability samples were prepared by spiking 50 µl plasma aliquots (all sodium citrate 3.7%) with 1 µl of a 0.5 mM compound stock solution in DMSO. After vortexing the samples were incubated in a Thermomixer at 37°C for 0 and 6 hours. After incubation the samples were stored on ice until further treatment. All samples were prepared in duplicates.
A suitable internal standard was added to each sample (1 µl of a 0.5 mM stock solution in DMSO). Protein precipitation was performed using two different methods depending on the compound conditions as indicated in Table 13. • A) 250 µl of acetonitrile containing 1% trifluoroacetic acid was added. After incubation at room temperature for 30 min the precipitate was separated by centrifugation and 150 µl of the supernatant was diluted with 150 µl of 1% aqueous formic acid. • B) 150 µl of a zinc sulphate precipitation agent containing 78% 0.1 M zinc sulphate and 22% acetonitrile was added. After incubation at room temperature for 30 min the precipitate was separated by centrifugation. To 100 µl of the supernatant 10 µl of 1% formic acid was added followed by further incubation at 60°C for 10 min to complete the formation of the zinc chelate, if the compound contains a free DOTA moiety.
The determination of the analyte in the clean sample solutions was performed on an Agilent 1290 UHPLC system coupled to an Agilent 6530 Q-TOF mass spectrometer. The chromatographic separation was carried out on a Phenomenex BioZen XB-C18 HPLC column (50 x 2 mm, 1.7 µm particle size).
Two different elution gradients were applied using a mixture of 0.1% formic acid in water as eluent A and acetonitrile as eluent B: • A) 2% B to 41% in 7 min, 800 µl/min, 40°C. • B) 5% B to 50% B in 6 min, 800 µL/min, 40°C.
Mass spectrometric detection was performed in positive ion ESI mode by scanning the mass range from m/z 50 to 3000 with a sampling rate of 2 / sec.
From the mass spectrometric raw data the ion currents for the double or triple charged monoisotopic signal was extracted for both, the compound and the internal standard.
Quantitation was performed by external matrix calibration with internal standard using the integrated analyte signals.
Additionally, recovery was determined by spiking a pure plasma sample that only contained the internal standard after treatment with a certain amount of the compound.
Carry-over was evaluated by analysis of a blank sample (20% acetonitrile) after the highest calibration sample.
The result is stated as "% intact compound remaining after 6 h incubation" and means that from the amount of material at the start of the experiment the stated percentage is detected as unchanged material at the end of the experiment by LC-MS quantification. Since all compounds are more than 50% intact after 6 h they are considered as stable enough for diagnostic and therapeutic applications. Table 13: Results of the plasma stability assay

human uPAR (uPAR-Fc) = target: T2, human uPAR (uPAR-Fc) (Homo sapiens, UniProt Q03405); test: Surface plasmon resonance (SPR) assay, single cycle kinetics; format: binding; details: pKD category for uPAR SPR activity assay, uPAR-Fc on Protein A-Chip, 25°C, read-out: pKD CAT (converted)
T2 construct: comprising amino acids Leu23-Arg303 according to UniProt entry Q03405.1; purchased R&D Systems 10378-UK-100
T2 sequence (Q03405 23-303): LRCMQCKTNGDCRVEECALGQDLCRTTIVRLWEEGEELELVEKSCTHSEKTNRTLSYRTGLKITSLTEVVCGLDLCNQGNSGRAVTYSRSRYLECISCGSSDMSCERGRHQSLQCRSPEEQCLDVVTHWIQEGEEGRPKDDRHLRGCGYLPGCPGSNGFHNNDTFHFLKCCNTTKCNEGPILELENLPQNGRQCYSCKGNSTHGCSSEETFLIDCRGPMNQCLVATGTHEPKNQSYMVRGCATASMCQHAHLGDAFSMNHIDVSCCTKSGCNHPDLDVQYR
Procedure, shortened: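 uPAR-Fc (Leu23-Arg303 extracellular domains, human IgG1 Fc) captured on Protein A chip to ~2000 RU; single-cycle kinetics at 25°C in HEPES running buffer pH 7.4 with 0.1% DMSO. KD from double-referenced sensorgrams fitted to 1:1 Langmuir model, reported as pKD.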

Molecule	pIC50 CAT [1]	% intact compound remaining after 6h incubation Mouse plasma [2] [%]	Kd (human uPAR (uPAR-Fc); single cycle kinetics) [nM]	IC50 [1] [nM]	remaining at 6 h, 9.8 µM [2] [%]	Kd (human uPAR (uPAR-Fc)) [nM]
iHex-[Cys-Arg-Gln-Tyr-Phe-Pro-Apc(GdDOTA)-Ile-Leu-Cys]-NH2 ({Pentanoyl(4-Me)}-CRQYFP[Api](GdDOTA)ILC-NH2; disulfide 1-10 (inferred); not fully specified) [UPAR-457]	A (pIC50 values ≥8.0)	64	–	–	–	–
CCCCCC(=O)N[C@@H](CC(=O)O)C(=O)N[C@@H](CC(C)C)C(=O)N[C@H]1CSSC[C@@H](C(N)=O)NC(=O)[C@H](CC(C)C)NC(=O)[C@H]([C@@H](C)CC)NC(=O)[C@H](C)NC(=O)[C@@H]2CCCN2C(=O)[C@H](Cc2ccccc2)NC(=O)[C@H](Cc2ccc(O)cc2)NC(=O)[C@H](CCCCNC(=O)CN2CCN(CC(=O)O)CCN(CC(=O)O)CCN(CC(=O)O)CC2)NC(=O)[C@H](CCCNC(=N)N)NC1=O [UPAR-427, Hex-Asp-Leu-[Cys-Arg-Lys(DOTA)-Tyr-Phe-Pro-Ala-Ile-Leu-Cys]-NH2] (Hexanoyl-DLCRK(DOTA)YFPAILC-NH2; disulfide 3-12)	–	–	< 1.58	≤ 10	> 95	–
iHex-[Cys-Lys(LuDOTA)-Gln-Tyr-Phe-Pro-ala-Ile-Leu-Cys]-NH2 ({Pentanoyl(4-Me)}-CK(DOTA(Lu))QYFP[dA]ILC-NH2; disulfide 1-10 (inferred); not fully specified) [UPAR-408]	A (pIC50 values ≥8.0)	75	–	–	–	–
CCCCC(=O)N[C@H]1CSSC[C@@H](C(N)=O)NC(=O)[C@H](CCC)NC(=O)[C@H]([C@@H](C)CC)NC(=O)[C@@H]2C[C@@H](O)CN2C(=O)[C@@H]2CCCN2C(=O)[C@H](Cc2ccccc2)NC(=O)[C@H](Cc2ccc(O)cc2)NC(=O)[C@H](CCCCNC(=O)CCOCCOCCOCCOCCOCCOCCOCCOCCOCCOCCOCCOCCNC(=O)CN2CCN(CC(=O)O)CCN(CC(=O)O)CCN(CC(=O)O)CC2)NC(=O)[C@H](CCCNC(N)=O)NC1=O [UPAR-200, Pent-[Cys-Cit-Lys(DOTA-PEG12)-Tyr-Phe-Pro-Hyp-Ile-Nva-Cys]-NHz] (Pentanoyl-C[Cit]K([PEG12-DOTA])YFP[Hyp]I[Nva]C-NH2; disulfide 1-10)	–	–	–	≤ 10	> 95	< 1.58
CC[C@H](C)[C@@H]1NC(=O)[C@@H](C)NC(=O)[C@@H]2CCCN2C(=O)[C@H](Cc2ccccc2)NC(=O)[C@H](Cc2ccc(O)cc2)NC(=O)[C@H](CCC(N)=O)NC(=O)[C@@H](C)NC(=O)[C@@H](NC(=O)[C@H](CC(C)C)NC(=O)COCCOCCNC(=O)CN2CCN(CC(=O)O)CCN(CC(=O)O)CCN(CC(=O)O)CC2)CSSC[C@@H](C(N)=O)NC(=O)[C@H](CC(C)C)NC1=O [UPAR-216, DOTA-O2Oc-Leu-[Cys-ala-Gln-Tyr-Phe-Pro-ala-Ile-Leu-Cys]-NH2] ({DOTA-AEEA}-LC[dA]QYFP[dA]ILC-NH2; disulfide 2-11)	–	–	–	≥ 126	84	> 100
CC[C@H](C)[C@@H]1NC(=O)[C@@H](C)NC(=O)[C@@H]2CCCN2C(=O)[C@H](Cc2ccccc2)NC(=O)[C@H](Cc2ccc(O)cc2)NC(=O)[C@H](CCC(N)=O)NC(=O)[C@H](CCCNC(N)=O)NC(=O)[C@@H](NC(=O)[C@H](CC(C)C)NC(C)=O)CSSC[C@@H](C(N)=O)NC(=O)[C@H](CC(C)C)NC1=O [UPAR-418, Ac-Leu-[Cys-Cit-Gln-Tyr-Phe-Pro-ala-Ile-Leu-Cys]-NH2] (Ac-LC[Cit]QYFP[dA]ILC-NH2; disulfide 2-11)	–	–	< 1.58	≤ 10	85	–
CCCCCC(=O)N[C@@H](CC(=O)O)C(=O)N[C@@H](CC(C)C)C(=O)N[C@H]1CSSC[C@@H](C(N)=O)NC(=O)[C@H](CC(C)C)NC(=O)[C@H]([C@@H](C)CC)NC(=O)[C@H](CCCCNC(=O)CN2CCN(CC(=O)O)CCN(CC(=O)O)CCN(CC(=O)O)CC2)NC(=O)[C@@H]2CCCN2C(=O)[C@H](Cc2ccccc2)NC(=O)[C@H](Cc2ccc(O)cc2)NC(=O)[C@H](CCSC)NC(=O)[C@H](CCCNC(=N)N)NC1=O [UPAR-351, Hex-Asp-Leu-[Cys-Arg-Met-Tyr-Phe-Pro-Lys(DOTA)-Ile-Leu-Cys]-NH2] (Hexanoyl-DLCRMYFPK(DOTA)ILC-NH2; disulfide 3-12)	–	–	< 1.58	≤ 10	> 95	–
CCCCC(=O)N[C@H]1CSSC[C@@H](C(N)=O)NC(=O)[C@H](CCC)NC(=O)[C@H]([C@@H](C)CC)NC(=O)[C@@H]2C[C@@H](O)CN2C(=O)[C@@H]2CCCN2C(=O)[C@H](Cc2ccccc2)NC(=O)[C@H](Cc2ccc(O)cc2)NC(=O)[C@H](CCCCNC(=O)CN2CCN(CC(=O)O)CCN(CC(=O)O)CCN(CC(=O)O)CC2)NC(=O)[C@H](CCCCNC(=N)N)NC1=O [UPAR-278, Pent-[Cys-Har-Lys(DOTA)-Tyr-Phe-Pro-Hyp-Ile-Nva-Cys]-NH2] (Pentanoyl-C[hArg]K(DOTA)YFP[Hyp]I[Nva]C-NH2; disulfide 1-10)	–	–	–	≤ 10	87	< 1.58
CCCCOC(=O)N[C@H]1CSSC[C@@H](C(N)=O)NC(=O)[C@H](CCC)NC(=O)[C@H]([C@@H](C)CC)NC(=O)[C@@H]2C[C@@H](O)CN2C(=O)[C@@H]2CCCN2C(=O)[C@H](Cc2ccccc2)NC(=O)[C@H](Cc2ccc(O)cc2)NC(=O)[C@H](CCCCNC(=O)CN2CCN(CC(=O)O)CCN(CC(=O)O)CCN(CC(=O)O)CC2)NC(=O)[C@H](CCCNC(N)=O)NC1=O [UPAR-275, Butoc-[Cys-Cit-Lys(DOTA)-Tyr-Phe-Pro-Hyp-Ile-Nva-Cys]-NH2] (Butoxycarbonyl-C[Cit]K(DOTA)YFP[Hyp]I[Nva]C-NH2; disulfide 1-10)	–	–	–	≤ 10	70	< 1.58
CC[C@H](C)[C@@H]1NC(=O)[C@@H](C)NC(=O)[C@@H]2CCCN2C(=O)[C@H](Cc2ccccc2)NC(=O)[C@H](Cc2ccc(O)cc2)NC(=O)[C@H](CCCCNC(=O)CN2CCN(CC(=O)O)CCN(CC(=O)O)CCN(CC(=O)O)CC2)NC(=O)[C@H](CCCNC(=N)N)NC(=O)[C@@H](NC(=O)CCC(C)C)CSSC[C@@H](C(N)=O)NC(=O)[C@H](CC(C)C)NC1=O [UPAR-176, iHex-[Cys-Arg-Lys(DOTA)-Tyr-Phe-Pro-ala-Ile-Leu-Cys]-NH2] ({Pentanoyl(4-Me)}-CRK(DOTA)YFP[dA]ILC-NH2; disulfide 1-10)	–	–	–	≤ 10	57	< 1.58
